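Grown in 96-well plates, cells were treated for 48 hours with each compound at five concentrations. Insufficient inhibition: endpoint recorded as highest concentration tested. Abbreviation: GI50, concentration required for 50% inhibition of growth. TGI denotes the concentration required for complete inhibition of growth.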
How the values were obtained:
Assay in all cases: growth of human tumour cells (NCI), 48 h
BT-549 breast = system: BT-549 breast
DMS 114 small cell lung = system: DMS 114 small cell lung
DMS 273 small cell lung = system: DMS 273 small cell lung
KM20L2 colon = system: KM20L2 colon
LXFL 529 NSCLC = system: LXFL 529 NSCLC
M19-MEL melanoma = system: M19-MEL melanoma
SNB-78 CNS = system: SNB-78 CNS
MDA-N = system: MDA-N

Row | SMILES | GI50 (BT-549 breast) [µM] | TGI (BT-549 breast) [µM] | TGI (DMS 273 small cell lung) [µM] | TGI (KM20L2 colon) [µM] | TGI (LXFL 529 NSCLC) [µM] | TGI (SNB-78 CNS) [µM] | other results
1 | C=C1CC[C@@H]2[C@](C)(COC(C)=O)[C@H](OC(C)=O)CC[C@@]2(C)[C@@H]1CC(Nc1ccc(S(=O)(=O)Nc2ncccn2)cc1)C1=CCOC1=O (stereo partly drawn) | 1.64 | 3.39 | – | – | – | – | –
2 | CCOc1ccc2c(c1)[n+]([O-])c(-c1nc3ccccc3s1)c(N)[n+]2[O-] | – | – | > 100 | > 100 | > 100 | > 100 | TGI (DMS 114 small cell lung): > 100 µM; TGI (M19-MEL melanoma): > 100 µM
3 | Cn1c2ccccc2c2c3[nH]c(=O)[nH]c(=O)c3c3c4ccccc4n(C)c3c21 | 2.83 | 18.7 | – | – | – | – | –
4 | COc1ccc(CNc2nc3cc(C(F)(F)F)ccc3nc2C)cc1OC | – | – | 48.9 | > 100 | > 100 | 55.8 | TGI (M19-MEL melanoma): > 100 µM
5 | Nc1nc(-c2cccc(Cl)c2)c(-c2ccc3ncccc3n2)s1 | > 25 | > 25 | – | – | – | – | –
6 | N#Cc1cccc(NC(=O)c2cc(-c3ccc(F)cc3F)ccc2O)c1 | 2.31 | 7.06 | – | – | – | – | –
7 | COC(=O)C12C3C4C1C1C2C3C41NC(=O)c1csc([C@@H](C[C@H](C(C)C)N(C)C(=O)[C@@H](NC(=O)[C@H]2CCCCN2C)C2CC2)OC(C)=O)n1 (stereo partly drawn) | < 0.00333 | 4.1 | – | – | – | – | –
8 | COC(=O)C(=O)C(C(=O)C=C(C)C)C(=O)C(=O)Nc1ccc(C)cc1C (stereo not drawn) | – | – | > 100 | > 100 | > 100 | > 100 | TGI (DMS 114 small cell lung): > 100 µM; TGI (M19-MEL melanoma): > 100 µM
9 | CCCCN1CSC(=S)N(Cc2ccccc2)C1 | – | > 100 | – | – | – | – | TGI (MDA-N): > 100 µM
10 | CCCS(=O)(=O)/C(=C(\c1ccc(Br)cc1)S(=O)(=O)CCC)c1ccc(Br)cc1 | – | – | > 10 | > 10 | > 10 | > 10 | TGI (M19-MEL melanoma): > 10 µM
11 | Cc1nc(-c2ccccc2)c(-c2ccccc2)s1 | – | 67.1 | – | – | – | – | TGI (MDA-N): 35.1 µM
12 | CC(=O)O.[Au].c1ccc([PH+](c2ccccc2)c2ccccc2)cc1 | – | – | 55.4 | 35 | 2.92 | > 70.3 | GI50 (DMS 273 small cell lung): 11.3 µM; GI50 (KM20L2 colon): 10.3 µM; GI50 (LXFL 529 NSCLC): 1.57 µM; GI50 (M19-MEL melanoma): 2.67 µM; TGI (M19-MEL melanoma): 15.6 µM; GI50 (SNB-78 CNS): 8.06 µM
13 | CN1C(=O)c2ccccc2NC(=O)C12O[C@@H]2c1cccc(O)c1 (stereo partly drawn) | – | – | – | – | – | – | TGI (MDA-N): > 100 µM
14 | Cc1nc2ccccc2c(=O)n1-c1ccccc1F | – | – | > 100 | > 100 | > 100 | > 100 | TGI (DMS 114 small cell lung): > 100 µM; TGI (M19-MEL melanoma): > 100 µM
15 | CC(C)CCCC(=O)CCCCCCC(=O)CCN(O)C(=O)C(N)CO (stereo not drawn) | – | 34.5 | – | – | – | – | TGI (MDA-N): 49.4 µM
16 | CC(C)c1cc2c(O)c(c1)Cc1cc(C(C)C)cc(c1O)Cc1cc(C(C)C)cc(c1O)Cc1cc(C(C)C)cc(c1O)C2 | – | – | > 100 | > 100 | – | > 100 | TGI (DMS 114 small cell lung): > 100 µM; TGI (M19-MEL melanoma): > 100 µM
17 | CNc1nc(N)c(N=O)c(Nc2ccc(Br)cc2)n1 | – | > 100 | – | – | – | – | TGI (MDA-N): > 100 µM
18 | COc1cc2c3c(n(C)c(=O)c2cc1OC)-c1cc2c(cc1/C3=C\CNCCCN)OCO2 | 1.91 | 5.22 | – | – | – | – | –
19 | OC/C=C(\I)CCCOCOCc1ccccc1 | – | – | 44.4 | > 100 | > 100 | > 100 | TGI (DMS 114 small cell lung): 69 µM; TGI (M19-MEL melanoma): > 100 µM

Row | SMILES | GI50 (BT-549 breast) [µM] | TGI (BT-549 breast) [µM] | TGI (DMS 273 small cell lung) [µM] | TGI (KM20L2 colon) [µM] | TGI (LXFL 529 NSCLC) [µM] | TGI (SNB-78 CNS) [µM] | other results
20 | N.N.O=C([O-])P(=O)([O-])[O-].[Na+].[Pt+4] | – | – | > 100 | > 100 | > 100 | > 100 | GI50 (DMS 273 small cell lung): > 100 µM; GI50 (KM20L2 colon): > 100 µM; GI50 (LXFL 529 NSCLC): > 100 µM; GI50 (SNB-78 CNS): > 100 µM
21 | COC(=O)c1cc(C)c(C)c2c1NC(=O)CNC2=O | – | – | > 100 | > 100 | > 100 | > 100 | TGI (DMS 114 small cell lung): > 100 µM; TGI (M19-MEL melanoma): > 100 µM
22 | N#C/C(=C\c1cc2ccccc2c2ccccc12)c1ccccc1 | – | – | 8.73 | 13.8 | > 100 | 34.2 | TGI (DMS 114 small cell lung): > 36.1 µM; TGI (M19-MEL melanoma): > 100 µM
23 | COc1cc(NS(=O)(=O)c2ccc(-c3cnc(C4CC4)o3)cc2)ccc1F | 2.02 | 20.3 | – | – | – | – | –
24 | c1cc[c]([Pb]([c]2ccccc2)[c]2ccccc2)cc1 | – | – | 27.8 | 91.6 | 17.2 | > 100 | GI50 (DMS 114 small cell lung): 1.92 µM; TGI (DMS 114 small cell lung): 12.7 µM; GI50 (DMS 273 small cell lung): 10.4 µM; GI50 (KM20L2 colon): 23.3 µM; GI50 (LXFL 529 NSCLC): 4.03 µM; GI50 (SNB-78 CNS): 13.2 µM
25 | COC(=O)c1c(C)[nH]c(/C=C2\N=C(c3ccc[nH]3)C=C2OC)c1C | 0.199 | 3.04 | – | – | – | – | –
26 | CC1(C)N=C(N)N=C(N)N1c1ccc(OCc2ccc(S(=O)(=O)F)c(Cl)c2)c(Cl)c1 | 18.9 | > 100 | – | – | – | – | –
27 | CCN(CC)CCCC(C)Nc1cnc(C(=O)Nc2cccc3ccc(OC)nc23)cn1 (stereo not drawn) | 1.95 | 4.47 | – | – | – | – | –
28 | Cn1cnc([N+](=O)[O-])c1[Se]c1nc(N)nc2c1ncn2C1OC(CO)C(O)C1O (stereo not drawn) | – | > 100 | – | – | – | – | TGI (MDA-N): > 100 µM
29 | C=C(C)C1CCC2(C(=O)O)CCC3(C)C(CCC4C5(C)CCC(OC(=O)NCc6ccccc6)C(C)(C)C5CCC43C)C12 (stereo not drawn) | 4.05 | 33.3 | – | – | – | – | –
30 | O=C1/C(=C/c2ccc(O)cc2)CSc2ccc(Cl)cc21 | 15.7 | 38.3 | – | – | – | – | –
31 | CCc1oc2ccccc2c1C(=O)c1cc(I)c(O)c(I)c1 | 2.79 | 13.9 | – | – | – | – | –
32 | C/C(=N\Nc1ccc(Cl)cn1)c1ccccn1 | 0.362 | > 76 | – | – | – | – | –
33 | C/C=C(\C)CC/C=C/CO[Si](C)(C)C(C)(C)C | – | – | – | – | – | – | TGI (MDA-N): > 100 µM
34 | CC[C@H](C)[C@H]1O[C@]2(C=C[C@@H]1C)C[C@@H]1C[C@@H](C/C=C(\C)[C@@H](O[C@H]3C[C@H](OC)[C@@H](O[C@H]4C[C@H](OC)[C@@H](NC)[C@H](C)O4)[C@H](C)O3)[C@@H](C)/C=C/C=C3\CO[C@@H]4[C@H](O)C(C)=C[C@@H](C(=O)O1)[C@]34O)O2 | 4.13 | 15.1 | – | – | – | – | –
35 | COc1cc2c(c(OC)c1OC)C(=O)[C@@H]1c3ccc([N+](=O)[O-])cc3C(=O)N(CCCBr)[C@H]21 | 14.6 | 55.9 | – | – | – | – | –
36 | Cc1ccc(C(=O)Nc2ccc(CN3CCN(C)CC3)c(C(F)(F)F)c2)cc1C#Cc1cnc(N)c2ccccc12 | 1.93 | 8.71 | – | – | – | – | –
37 | CCCCOC(=O)NC(=O)c1cn(C2CCCCC2)c(=O)[nH]c1=O | – | – | > 100 | > 100 | 93 | > 100 | TGI (DMS 114 small cell lung): > 100 µM; TGI (M19-MEL melanoma): > 100 µM
38 | O=C(O)[C@@H]1CCCCN1Cc1cc2cc3c(cc2c2cc(OCc4ccccc4)ccc12)OCO3 | 2.97 | 8.88 | – | – | – | – | –

— PubChem BioAssay (NCI)
